ChEMBL document CHEMBL1201862, “PubChem BioAssay data set” (2004)
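Following 48 hours of exposure in 96-well plates, responses at five concentrations were used to interpolate endpoints linearly. GI50: concentration for 50% inhibition of growth.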 Calls of active or inactive are those of the source. Rule as the data show it: active = GI50 up to about 1.1 µM and inactive = higher.

Tests used:
Experiment in all cases: NCI anticancer screen, dose series, 48 h
[1] = test system: DLD-1
[2] = test system: M14
[3] = test system: UACC-257
[4] = test system: HCC 2998
[5] = test system: OVCAR-5
[6] = test system: HCT-15
[7] = test system: OVCAR-3
[8] = test system: HOP-18
[9] = test system: A549
[10] = test system: TK-10
[11] = test system: SF-539
[12] = test system: NCI-H23
[13] = test system: NCI-H460
[14] = test system: SNB-75
[15] = test system: SK-MEL-5
[16] = test system: SK-OV-3
[17] = test system: SNB-19
[18] = test system: LOX IMVI
[19] = test system: EKVX
[20] = test system: SR
[21] = test system: HOP-92
[22] = test system: CAKI-1
[23] = test system: LXFL 529
[24] = test system: SNB-78
[25] = test system: NCI-H226
[26] = test system: HCT-116
[27] = test system: NCI-H522
[28] = test system: IGROV-1
[29] = test system: SN12C
[30] = test system: A498
[31] = test system: SK-MEL-2
[32] = test system: SK-MEL-28
[33] = test system: SW-620
[34] = test system: HT-29
[35] = test system: CCRF-CEM
[36] = test system: KM12
[37] = test system: ACHN
[38] = test system: SF-295
[39] = test system: SF-268
[40] = test system: HL-60
[41] = test system: HOP-62
[42] = test system: M19-MEL
[43] = test system: DMS-273
[44] = test system: RXF 393
[45] = test system: XF498
[46] = test system: OVCAR-4
[47] = test system: RPMI-8226
[48] = test system: UACC-62
[49] = test system: COLO 205
[50] = test system: U-251
[51] = test system: K562
[52] = test system: Malme-3M
[53] = test system: 786-0
[54] = test system: UO-31
[55] = test system: OVCAR-8
[56] = test system: KM-20L2
[57] = test system: DMS-114
[58] = test system: MOLT-4

Measured: GI50

C[N+]1(CCNP(=S)(NCC[N+]2(C)Cc3c(ccc4c3OCO4)C3C2c2cc4c(cc2C[C@@H]3O)OCO4)NCC[N+]2(C)Cc3c(ccc4c3OCO4)C3C2c2cc4c(cc2C[C@@H]3O)OCO4)Cc2c(ccc3c2OCO3)C2C1c1cc3c(cc1C[C@H]2O)OCO3 (some centres not stated)
< 0.00191 µM: [6]
inactive: [22] 13.2 µM | [25] 2.42 µM | [35] 1.27 µM
active: [1] < 0.00191 µM | [2] < 0.00191 µM | [3] < 0.00191 µM | [4] < 0.00191 µM | [5] < 0.00191 µM | [7] < 0.00191 µM | [8] < 0.00191 µM | [9] < 0.00191 µM | [10] < 0.00191 µM | [11] < 0.00191 µM | [12] < 0.00191 µM | [13] < 0.00191 µM | [14] < 0.00191 µM | [15] < 0.00191 µM | [16] < 0.00191 µM | [17] < 0.00191 µM | [18] < 0.00191 µM | [19] < 0.00191 µM | [20] < 0.00191 µM | [21] < 0.00191 µM | [23] < 0.00191 µM | [24] < 0.00191 µM | [26] < 0.00191 µM | [27] < 0.00191 µM | [28] < 0.00191 µM | [29] < 0.00191 µM | [30] < 0.00191 µM | [31] < 0.00191 µM | [32] < 0.00191 µM | [33] < 0.00191 µM | [34] < 0.00191 µM | [36] < 0.00191 µM | [37] < 0.00191 µM | [38] < 0.00191 µM | [39] < 0.00191 µM | [40] < 0.00191 µM | [41] < 0.00191 µM | [42] < 0.00191 µM | [43] < 0.00191 µM | [44] < 0.00191 µM | [45] < 0.00191 µM | [46] < 0.00191 µM | [47] < 0.00191 µM | [48] < 0.00191 µM | [49] < 0.00191 µM | [50] < 0.00191 µM | [51] < 0.00191 µM | [52] < 0.00191 µM | [53] < 0.00191 µM | [54] < 0.00191 µM | [55] < 0.00191 µM | [56] < 0.00191 µM

O=C(NC(=S)Nc1ccccc1)c1ccc([N+](=O)[O-])cc1
inactive: [1] 47.9 µM | [2] > 100 µM | [3] 60.3 µM | [4] > 100 µM | [57] 17.5 µM | [5] 2.28 µM | [7] 92.5 µM | [8] > 100 µM | [9] 41.9 µM | [10] > 100 µM | [12] 4.8 µM | [13] 37.1 µM | [14] > 100 µM | [15] 36 µM | [16] 50.1 µM | [18] 84.1 µM | [19] > 100 µM | [21] 35.9 µM | [22] 73.8 µM | [23] > 100 µM | [24] > 100 µM | [26] > 100 µM | [27] 18.3 µM | [28] 71.9 µM | [29] > 100 µM | [32] > 100 µM | [33] > 100 µM | [34] 80.9 µM | [35] 31.3 µM | [36] 3.46 µM | [37] 83.9 µM | [38] 45.1 µM | [39] > 100 µM | [40] 36.8 µM | [41] > 100 µM | [42] > 100 µM | [43] 60.3 µM | [45] > 100 µM | [46] 3.4 µM | [47] 28.6 µM | [48] 75.7 µM | [49] 47.3 µM | [58] 71.8 µM | [51] 52 µM | [52] > 100 µM | [53] > 100 µM | [54] 45.8 µM | [55] > 100 µM | [56] > 100 µM
38.5 µM: [6]

CC(C)C(=O)N[C@@H](C)C(=O)N(Cc1ccc2ccccc2c1)N=O
active: [8] 0.057 µM
77.4 µM: [6]
inactive: [1] > 100 µM | [2] 84.1 µM | [3] > 100 µM | [4] > 100 µM | [57] 33.7 µM | [5] 48.8 µM | [7] 62.7 µM | [9] 82.4 µM | [10] > 100 µM | [11] > 100 µM | [13] 82 µM | [14] > 100 µM | [15] > 100 µM | [16] > 100 µM | [17] > 100 µM | [18] 46 µM | [19] > 100 µM | [22] 40.5 µM | [23] 71.9 µM | [24] > 100 µM | [26] 68.9 µM | [28] 95.9 µM | [29] > 100 µM | [30] 58.2 µM | [31] 98.9 µM | [32] > 100 µM | [33] 55.5 µM | [34] > 100 µM | [35] 61.4 µM | [36] > 10 µM | [37] > 100 µM | [38] 48.6 µM | [39] > 100 µM | [41] > 100 µM | [42] 97.7 µM | [43] 28.8 µM | [45] > 100 µM | [46] 54.7 µM | [47] 43.6 µM | [48] 48 µM | [49] > 100 µM | [58] 39.4 µM | [50] 72.4 µM | [51] 36.1 µM | [52] > 100 µM | [53] > 100 µM | [54] 30 µM | [55] > 100 µM | [56] > 100 µM
